The numbers were not newly measured in patent US7705000B2, “Oral suspension comprising meloxicam” (Janssen Pharmaceutica N.V., priority 2004, dated 2010), which cites them from elsewhere.

The conditions of this series: at a pH of 4.

SMILES strings stand for the structures.

As to `Cc1cnc(NC(=O)C2=C(O)c3ccccc3S(=O)(=O)N2C)s1` [meloxicam, 4-hydroxy-2-methyl-N-(5-methyl-2-thiazolyl)-2H-1,2-benzo-thiazine-3-carboxamide-1,1-dioxide], the solubility of meloxicam was 0.5 µg/mL.
